Results: patent US9675623B2, “Non-surgical method of treatment for cataract” (THE REGENTS OF THE UNIVERSITY OF MICHIGAN, priority 2012, dated 2017)
Changes are numbered by the printed parent chain. Where “and” joins values, the source holds several entries; their conditions need not be identical. Identical values can stand only once.

Key:
R120G cryAB [1] = target: T1, R120G cryAB (Homo sapiens, UniProt P02511, R120G); test: Differential scanning fluorimetry (DSF), shift of apparent Tm; format: binding; details: DSF with R120G cryAB; for ACTIVITY (shift in thermal stability at 100 μM): 100 μM compound
T1 sequence (P02511 1-175 R120G): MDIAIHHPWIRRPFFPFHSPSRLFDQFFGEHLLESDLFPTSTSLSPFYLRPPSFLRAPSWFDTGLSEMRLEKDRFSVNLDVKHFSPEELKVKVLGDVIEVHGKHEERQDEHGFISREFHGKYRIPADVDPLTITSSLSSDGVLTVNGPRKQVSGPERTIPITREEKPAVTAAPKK
Procedure: Differential scanning fluorimetry (DSF) was utilized to identify compounds that stabilize cryAB. In DSF experiments, the melting transition (Tm) of the protein target is measured in the presence of potential ligands (Cummings et al., J Biomol Screen 11, 854 (2006). DSF measures thermal unfolding of the target protein via the fluorescence of intrinsic tryptophans, or (more commonly) a dye, such as 1,8-anilinonapthalenesulfonic (bis-ANS) or Sypro Orange. Binding of a ligand adds free energy to the folded state or key intermediates, which limits unfolding and shifts the apparent Tm. These values are used to calculate the unfolding transition. When compounds bind to the target prior to heating, they stabilize against unfolding, shifting the ΔTm. […] (3).

R120G cryAB [2] = target: T1, R120G cryAB; test: Biolayer interferometry (Octet Red); format: binding; details: biotinylated cryAB on streptavidin-coated pins, equilibrium association data
Procedure: Measuring affinity for the test protein by biolayer interferometry (Octet Red) allows for the identification of false positives. Briefly, biotinylated cryAB is immobilized to streptavidin-coated pins and equilibrium association data across a hundred-fold concentration range is analyzed to generate the apparent KD. To control for nonspecific binding, the response of a biocytin-blocked pin is subtracted from each sensorgram.

R120G cryAB [3] = target: T1, R120G cryAB; test: Amyloid formation / aggregation measured by electron microscopy and visual inspection; format: biochemical
Procedure: To test this idea, R120G cryAB (15 μM) was treated with 5-cholesten-3b,25-diol or cholesterol (100 μM) and its ability to aggregate was measured by electron microscopy.

R120G cryAB [4] = target: T1, R120G cryAB; test: 15N HSQC NMR binding site mapping; details: 15N HSQC NMR chemical shifts
cryAB = target: T2, cryAB (Mus musculus, UniProt P23927, R120G); test: Excised eyes from R120G cryAB knock-in mice treated with compound; details: 100 μM, versus saline control
T2 construct: from tissue; host or cells: excised eyes of R120G cryAB knock-in mice
T2 sequence (P23927 1-175 R120G): T1 sequence (P02511 1-175 R120G) with P39S, S41A, F61I, T170A
Procedure: The R120G cryAB knock-in mouse is a clinically-acceptable model of aging-associated and hereditary cataract. The animal model develops severe cataracts within 20 weeks (Andley et al., PLoS One 6, e17671 (2011)). Excised eyes from these mice were treated with 5-cholesten-3b,25-diol (100 μM) or a saline control.

[5] = test system: R120G cryAB knock-in mice; test: Eye drops to live R120G cryAB knock-in mice; slit lens illumination and GPC/light scattering of lens homogenates; format: in vivo, mouse; details: 5 mM in saline-cyclodextrin, eye dropper three times a week for two weeks
α-crystallin = test: Gel filtration (GPC) analysis of α-crystallin solubility, treated versus fellow untreated eye; format: in vivo, mice
Procedure: 5-cholesten-3b,25-diol formulated in a saline-cyclodextrin solution (5 mM cyclodextran; 5 mM 5-cholesten-3b,25-diol) was delivered by eye dropper three times a week for two weeks to live mice (n=15). Gel filtration analysis of α-crystallin solubility was conducted by processing samples as previously described by Andley et al. (PLoS ONE, 6:3, 1-13 (2011)). Briefly, degree of aggregation of α-crystallin was determined using gel permeation chromatography (GPC) with light scattering and refractive index (RI) measurements. All data were analyzed using SAS version 9.3 (SAS Institute; Cary, N.C.). To control for differences in assay sensitivity among animals, the area under the curve for α-crystallin in the drug treated eye was compared to the area under the curve generated from the fellow untreated eye and expressed as “percent” difference in area using the untreated eye as the denominator. The percent difference between treated and untreated eyes was compared using the Wilcoxon signed rank test for the null hypothesis of no difference. The association between age and percent difference was calculated using the Spearman rank correlation coefficient. Non-parametric statistical models were used to protect from departures from normality.

[6] = R120G cryAB 15 μM, compound 100 μM

Structure (SMILES): C[C@H](CCCC(C)(C)O)[C@H]1CC[C@H]2[C@@H]3CC=C4C[C@@H](O)CC[C@]4(C)[C@H]3CC[C@]12C [5-cholesten-3b,25-diol]
- ACTIVITY (shift in thermal stability at 100 μM) (R120G cryAB [1]): −2.0 °C
- Kd (R120G cryAB [2]): 10.1 ± 4.4 µM
- amyloid formation (electron microscopy) (R120G cryAB [3]; [6]): dramatically suppressed amyloid formation
- opacity of the R120G cryAB mixture (visual inspection) (R120G cryAB [3]; [6]): reduced the opacity
- aggregation of pre-formed R120G cryAB amyloids (R120G cryAB [3]; pre-formed amyloids): reversed the aggregation
- binding site on R120G cryAB (R120G cryAB [4]): binds a groove across the cryAB dimer interface
- aggregation of cryAB (cryAB): significantly reduced the aggregation of cryAB
- cryAB solubility (cryAB): improved cryAB solubility
- cryAB solubility [5]: significantly improved cryAB solubility
- lens transparency [5]: improved lens transparency
- rescued cataract phenotypes (treated mice) [5]: 10/15
- Percent difference in area between untreated and treated eyes, Mean (α-crystallin; Age 66 days): 177.2%
- Percent difference in area between untreated and treated eyes, Median (α-crystallin; Age 66 days): −20.2%
- Percent difference in area between untreated and treated eyes, Mean (α-crystallin; Age 79 days): 98.1%
- Percent difference in area between untreated and treated eyes, Median (α-crystallin; Age 79 days): 98.1%
- Percent difference in area between untreated and treated eyes, Mean (α-crystallin; Age 184 days): 61.4%
- Percent difference in area between untreated and treated eyes, Median (α-crystallin; Age 184 days): 61.4%
- Percent difference in area between untreated and treated eyes, Mean (α-crystallin; Age 192 days): 22.7%
- Percent difference in area between untreated and treated eyes, Median (α-crystallin; Age 192 days): 55.8%
- Percent difference in area between untreated and treated eyes, Mean (α-crystallin; Age 200 days): 38.7%
- Percent difference in area between untreated and treated eyes, Median (α-crystallin; Age 200 days): 31.8%
- Percent difference in area between untreated and treated eyes, Mean (α-crystallin; Age 266 days): 1376.3%
- Percent difference in area between untreated and treated eyes, Median (α-crystallin; Age 266 days): 679.0%
- Percent difference in area between untreated and treated eyes, Mean (α-crystallin; All ages): 381.2±974.6% and 381.2%
- Percent difference in area between untreated and treated eyes, Median (α-crystallin; All ages): 63.3%
- area under the curve of α-crystallin, drug treated eyes versus fellow untreated eyes (α-crystallin; eye drops 5 mM three times a week for two weeks, Wilcoxon signed rank): statistically significantly higher

Structure (SMILES): CC(C)CCC[C@@H](C)[C@H]1CC[C@H]2[C@@H]3CC=C4C[C@@H](O)CC[C@]4(C)[C@H]3CC[C@]12C [5-cholesten-3b-ol]
- ACTIVITY (shift in thermal stability at 100 μM) (R120G cryAB [1]): −1.1 °C

Structure (SMILES): CC(C)CCC[C@@H](C)[C@H]1CC[C@H]2[C@@H]3CC[C@H]4C[C@@H](O)CC[C@]4(C)[C@H]3CC[C@]12C [5a-cholestan-3b-ol-6-one, (2R,5S,7S,15R)-5-hydroxy-2,15-dimethyl-14-(6-methylheptan-2-yl)tetracyclo [8.7.0.0^{2,7}.0^{11,15}] heptadecan-8-one]
- ACTIVITY (shift in thermal stability at 100 μM) (R120G cryAB [1]): −3.0 °C

Structure (SMILES): CC(C)CCC[C@@H](C)[C@H]1CC[C@H]2[C@@H]3CC=C4C[C@@H](O)CC[C@]4(C)[C@H]3CC[C@]12C [cholesterol, reference compound]
- activity in DSF (R120G cryAB [1]; focused sterol collection): inactive
- amyloid formation (electron microscopy) (R120G cryAB [3]; [6]): not

Structure (SMILES): C[C@]12CCC(=O)C[C@H]1CC[C@@H]1[C@@H]2CC[C@]2(C)[C@@H](O)CC[C@@H]12 [etiocholan-17b-ol-3-one]
- ACTIVITY (shift in thermal stability at 100 μM) (R120G cryAB [1]): +1.7 °C
